Publication PMC12463534, “Exploring the Anticancer Properties of 4-Phenylthiazole-Based Ru(II) and Os(II) Metallacycles Featuring 1-Methylimidazole as N-Donor Functionality” (Bioinorganic Chemistry and Applications, 2025)

Tests used:
[1] = tested on: HCT116 multicellular tumor spheroids (3D); assay: Resazurin assay, HCT116 3D multicellular tumor spheroids; details: read-out: IC50 3D; HCT116 3D spheroids, resazurin assay, 96 h exposure
Description: Both models were investigated by the fluorimetric resazurin assay after 96-h exposure.
HCT116 colorectal carcinoma cells (RRID:CVCL_0291 from ATCC) were cultivated in McCoy's 5A medium, supplemented with 10% heat-inactivated fetal bovine serum and 4 mM L-glutamine.
For 2D experiments, HCT116 cells were harvested from culture flasks by trypsinization, seeded in 100-μL aliquots into 96-well microculture plates (CytoOne, TC-treated, from Starlab) in densities of 2 × 10^3 cells per well, and incubated for 24 h prior to exposure to the test compounds. […] Stock solutions of test compounds were prepared in DMF, which were then diluted in McCoy's 5A-supplemented medium (not to exceed a final content of 0.5% v/v of organic solvent in the test plates), and serial dilutions were added in aliquots of 100 μL per well. […] After incubation for 4 h, fluorescence was measured with a microplate reader (Bio-Tek, SynergyHT) at a wavelength of 530 nm, additionally using a reference wavelength of 620 nm.

[2] = tested on: G4 forming sequences (h-Telo, bcl2, hTERT, Kit1, Kit2) and dsDNA; assay: FRET melting assay, G-quadruplex / B-DNA interaction; type: binding, human; details: 60 mM potassium cacodylate pH 7.4, 2 h incubation
Description: G4s are DNA secondary motifs that play crucial roles in cancer development. […] The complexes were incubated with different G4 forming sequences: one derived from human telomere-forming (h-Telo) and four corresponding to promoter regions of oncogenes, namely, bcl2, hTERT, Kit1, and Kit2. For comparison, a self-complementary sequence called dsDNA was used to represent B-DNA (Table S2).
FRET experiments were conducted using an Applied Biosystems QuantStudio 6 PCR cycler in a 96-well format equipped with a FAM (6-carboxyfluorescein) filter. Oligonucleotide stock solutions, labelled with FAM and TAMRA (6-carboxytetramethylrhodamine) probes, were diluted to the desired concentration in a 60-mM potassium cacodylate buffer (pH 7.4). To fold the oligonucleotides into their B-DNA or G4 topologies, the solutions were heated to 95°C for 5 min and then allowed to cool slowly to room temperature overnight. The final concentration of the oligonucleotides was 0.2 μM, with a total volume of 30 μL in each well. Metal complexes were dissolved in DMF to prepare 2 mM stock solutions and further diluted with the buffer, where DMF concentration never exceeded 0.05%. Mixtures of oligonucleotides and metal compounds were left at room temperature for 2 h. Data were collected twice, each time in duplicate, over a temperature range of 25°C–95°C, with a ramp of 1°C every 30 s. FAM emission data were normalized from 0 to 1 to compare different datasets. After data normalization, we extrapolated the T1/2 values, i.e., the temperature at which normalized FAM emission is 0.5. The DNA concentration is expressed in strands.

SW480 cancer cells = assay: Cellular accumulation (ICP-MS) in SW480 cells; details: 50 μM, 0.5% DMF in MEM, SW480, exposure time 2 h
Description: As the coordinated p-cym and leaving groups are present in all synthesized complexes, we focused on the differently substituted 4-phenylthiazoles for estimated changes in lipophilicity.
Cellular accumulation of the compounds was studied based on a method described previously with modifications. 1.8 × 10^5 SW480 cells per well were seeded in aliquots of 1 mL of complete MEM (see above) into 12-well plates (CytoOne, tissue culture treated, Starlab) and incubated at 37°C for 24 h. Then, cells were exposed for 2 h at 37°C to 50 μM solutions of the test compounds (containing 0.5% DMF) in fresh 0.5 mL of complete MEM upon exchange of the medium. Afterward, cells were washed three times with 1 mL PBS per well, lysed with 0.4 mL sub-boiled HNO3 per well for 1 h at room temperature, and 0.3 mL of each sample was diluted with 7.7 mL Milli-Q water. Adsorption/desorption controls were prepared in the same manner in cell-free wells. Ruthenium content was quantified by ICP-MS using an ICP-quadrupole MS Agilent 7800 instrument (Agilent Technologies, Waldbronn, Germany) as described previously.

[3] = tested on: A549 lung adenocarcinoma cells; assay: MTT assay, inhibition of cancer cell growth, A549; details: read-out: 50% inhibitory concentration A549, exposure time 96 h
Description: CH1/PA-1 ovarian teratocarcinoma cells (CH1, RRID: CVCL_4992, provided by L. R. Kelland, CRC Center for Cancer Therapeutics, Institute of Cancer Research, Sutton, UK; confirmed by STR profiling as PA-1 ovarian teratocarcinoma cells at Multiplexion, Heidelberg, Germany), SW480 colon adenocarcinoma (RRID: CVCL_0546), and A549 lung adenocarcinoma cells (NCI-H2618, RRID: CVCL_A549; both cell lines were obtained from the American Type Culture Collection (ATCC), Manassas, VA, USA) were grown as adherent cultures in 75-cm^2 culture flasks (Starlab, Hamburg, Germany) by using minimal essential medium (MEM) supplemented with 1 mM sodium pyruvate, 4 mM L-glutamine, 1% (v/v) nonessential amino acids from 100-fold stock (all purchased from Sigma-Aldrich), and 10% heat-inactivated fetal bovine serum (Serana, Pessin, Germany).
The 3-(4,5-dimethylthiazol-2-yl)-2,5-diphenyl-2H tetrazolium bromide (MTT, Acros Organics, Geel, Belgium) assay was used to detect the cytotoxicity of the compounds after 96-h incubation. For this purpose, cells were harvested from culture flasks by trypsinization, seeded in 100-μL aliquots into 96-well microculture plates (Starlab, UK) in densities of 1 × 10^3 (CH1/PA-1), 2 × 10^3 (SW480), and 3 × 10^3 (A549) cells per well and incubated for 24 h prior to exposure to the test compounds. Stock solutions of test compounds were prepared in DMF, which were then diluted in MEM (not to exceed a final content of 0.5% v/v of organic solvent in the test plates), and serial dilutions were added in aliquots of 100 μL per well. […] After incubation for 4 h, the medium/MTT mixtures were removed, and the produced formazan crystals were dissolved in 150 μL DMSO per well. Optical densities at 550 nm were measured spectrophotometrically with a ELx808 Absorbance Microplate Reader (Bio-Tek, Winooski, VT, USA) by using a reference wavelength of 690 nm to correct for unspecific absorption.

CT26 tumor = assay: Anticancer activity in CT26 tumor-bearing BALB/c mice; type: in vivo; details: i.p. 50 mg/kg
Description: Figure 5 Anticancer activity of 1c and 3c in vivo. CT26-bearing BALB/c mice were treated i.p. with 50 mg/kg for five consecutive days for 2 weeks. (a) Impact on tumor growth; data are presented as mean ± SEM. […] On Day 15, most of the animals were sacrificed and tissues collected for further analyses. Of each group, 4 animals were kept to assess the impact on overall survival, which is shown in (b). Statistical significance was tested by log-rank test and Mantel–Cox post-test, ^∗p < 0.01. (c) The ruthenium levels measured by ICP-MS in the collected tissue samples of the mice, which were sacrificed 2 h after the last treatment.
CT26 cells (5 × 10^5 cells in 50-μL serum-free medium) were injected subcutaneously (s.c.) into the right flank of 8–16-week-old BALB/c mice (Envigo Laboratories, San Pietro Al Natisone, Italy). After 3 days, therapy treatment started on five consecutive days for 2 weeks. Animals were treated i.p. with 50 mg/kg 1c and 3c (all dissolved in 10% DMSO in 0.9% NaCl, 12 mice per group). The solvent control animals received 10% DMSO in 0.9% NaCl. Every day, the animals were monitored for the overall health conditions and tumor size was measured regularly by caliper measurement. Tumor volumes (mm^3) were calculated using following formula: length × width^2/2. In the overall survival arm of the experiment, mice were sacrificed by cervical dislocation in the case of a tumor length > 20 mm or tumor ulceration or a decreased body weight of ∼20%. Tumor growth and possible side effects of the treatment were evaluated by daily recording the tumor size by caliper measurement and parameters of the animal's overall health conditions. In the tissue sampling arm at the experiment, the mice were sacrificed by cervical dislocation 2 h after the last treatment. Tumors as well as organs were collected. Additionally, blood was drawn and incubated for 25 min to allow blood clotting. To isolate serum and blood pellets, the blood was centrifuged for 10 min at 17,900 g at room temperature. The supernatant characterized as serum was transferred to a new tube and centrifuged again to remove residual red blood cells. All collected samples were stored at −20°C and further processed for platinum measurements via ICP-MS.

Structure (SMILES): Cc1ccc(C(C)C)cc1.Cn1cc[n+]([Ru-]2[c]3cc(S(C)(=O)=O)ccc3-c3csc[n+]32)c1.O=[N+]([O-])[O-] [Compound 3c, [((3-κN)-1-Methylimidazole)(4-(4-(methylsulfonyl)phenyl)thiazolato-κN,κC2′)(η^6-p-cymene)ruthenium(II)] Nitrate]
- IC50 [1]: 226 ± 36 µM
- Stabilization of oligonucleotides (G4s or B-DNA) [2]: No stabilization
- Cellular accumulation, fg Ru/cell (SW480 cancer cells): 4.6 ± 0.6 fg Ru/cell
- IC50 [3]: > 200 µM
- Impact on overall survival (CT26 tumor; 4 mice per group, log-rank test): significantly prolonged overall survival
- Impact on tumor volume (anticancer activity) (CT26 tumor; 5 times a week for two weeks, did not reach statistical significance): slight anticancer activity
- Survival of one animal (CT26 tumor; one animal): 48 days
